Source: US7303889B2, “Ligand for G-protein coupled receptor GPR43 and uses thereof” (Euroscreen S.A., priority 2002, dated 2007)
Read-outs that look alike come from different tables or passages of the source.

What was measured:
[1] = biological target: T1, human GPR43 (Homo sapiens, UniProt O15552); assay: Accumulation of GTPγ[35S] binding on membranes from CHO-K1 cells expressing human GPR43; assay type: biochemical; set-up: expressed in transfected cells; conditions: for activity on GTPγ[35S] binding / order of agonist potency: single concentration of each compound, FIG. 8
T1 sequence (O15552 1-330): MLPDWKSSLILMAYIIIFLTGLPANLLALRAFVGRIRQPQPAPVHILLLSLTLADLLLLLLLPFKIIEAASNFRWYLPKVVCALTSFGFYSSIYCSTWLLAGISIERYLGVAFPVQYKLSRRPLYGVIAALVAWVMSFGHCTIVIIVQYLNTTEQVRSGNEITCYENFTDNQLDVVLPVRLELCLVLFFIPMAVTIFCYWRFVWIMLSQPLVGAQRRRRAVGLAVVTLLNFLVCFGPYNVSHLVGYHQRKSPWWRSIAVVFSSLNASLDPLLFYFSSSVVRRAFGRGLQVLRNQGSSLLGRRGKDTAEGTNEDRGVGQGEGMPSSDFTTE
Method: For GPCRs such as GPR43, a measure of receptor activity is the binding of GTP by cell membranes containing receptors. In the method described by Traynor and Nahorski, 1995, Mol. Pharmacol. 47: 848-854, incorporated herein by reference, one essentially measures G-protein coupling to membranes by detecting the binding of labelled GTP. For GTP binding assays, membranes isolated from cells expressing the receptor are incubated in a buffer containing 20 mM HEPES, pH 7.4, 100 mM NaCl, and 10 mM MgCl2, 80 pM ^35S-GTPγS and 3 μM GDP. The assay mixture is incubated for 60 minutes at 30° C., after which unbound labelled GTP is removed by filtration onto GF/B filters. Bound, labelled GTP is measured by liquid scintillation counting. In order to assay for modulation of propionate-induced GPR43 activity, membranes prepared from cells expressing a GPR43 polypeptide are mixed with propionate, and the GTP binding assay is performed in the presence and absence of a candidate modulator of GPR43 activity. […] In this case, propionate-stimulated GTP binding is used as a standard. […] GTPase activity is measured by incubating the membranes containing a GPR43 polypeptide with γ^32P-GTP. Active GTPase will release the label as inorganic phosphate, which is detected by separation of free inorganic phosphate in a 5% suspension of activated charcoal in 20 mM H3PO4, followed by scintillation counting. Controls include assays using membranes isolated from cells not expressing GPR43 (mock-transfected), in order to exclude possible non-specific effects of the candidate compound.
The activity of acetate was examined in a membrane-based functional test.
The activity of other SCFA and related compounds (alcohols, aldehydes, cetone, di-acids . . . ) was evaluated using a single concentration of each in the membrane-cell based assay.

[2] = biological target: T1, human GPR43; assay: Structure-activity relationships of SCFAs and related compounds on human GPR43 (FIG. 12); set-up: expressed in transfected cells; conditions: compared with corresponding non-substituted active compounds
[3] = test system: non related human G-protein coupled receptors; assay: GTPγ[35S] binding on ten membrane preparations of CHO-K1 cells expressing non related human GPCRs; assay type: biochemical
[4] = test system: human polymorphonuclear (PMN) leukocytes; assay: Mobilization of intracellular calcium in human neutrophils (Fura-2); assay type: cell-based; conditions: for EC50: FIG. 15 and 16, read-out: EC50 for increase of intracellular calcium
Method: The following experiments were conducted to test whether the human polymorphonuclear (PMN) leukocytes could be activated with acetate and propionate, since the receptor is strongly expressed in peripheral blood cells containing mainly PMNs. Activation was determined by the quantification of the intracellular calcium mobilized from internal pool after activation by acetate and propionate of the cell membrane receptor. PMN were purified from the venous blood of healthy volunteers. Cells were isolated according to established methods. For intracellular calcium measurements, the cells were loaded for 30 min at room temperature with Fura-2AM (Molecular Probes). […] Briefly, neutrophils suspensions (1×10^7 cells/ml) were incubated with 2 μM Fura-2/AM for 30 minutes at 37° C. The cells were then washed free of the extracellular probe, resuspended at 5×10^6 cells/ml and allowed to reequilibrate for 10 minutes at 37° C. Cells were then transferred to the thermostatted cuvette compartment (37° C.) of the fluorometer and the fluorescence monitored (excitation and emission […], 340 and 510 nm respectively).

[5] = test system: peripheral blood neutrophils; assay: Chemotactic response of neutrophilic granulocytes (48-well chamber); assay type: cell-based, human; conditions: for shape of chemotactic dose-response: FIG. 17
Method: Peripheral blood mononuclear cells were purified from buffy coats of healthy volunteers as previously described (Struyf S, De Meester I, Scharpe S, Lenaerts J P, Menten P, Wang J M, Proost P, Van Damme J., Eur J Immunol Apr. 28, 1998; 28 (4):1262-71). For intracellular calcium measurements, the cells were loaded for 30 min at room temperature with Fura-2AM (Molecular Probes). Calcium transients were monitored by a LS50B spectrofluorimeter (Perkin Elmer) as described (Grynkiewicz G, Poenie M, Tsien R Y., J Biol Chem Mar. 25, 1985;260(6):3440-50) at a final cell concentration of 10^6 cells/ml in buffer containing 125 μM probenecid. Chemotaxis was assessed in 48-well chambers using polycarbonate filter membranes with 3 μm (mesh size) (Neuroprobes, Inc.). The results are represented as chemotactic index (FIG. 17).
Freshly isolated peripheral blood neutrophils from healthy donors were tested for their chemotactic response to sodium acetate and propionate.

[6] = biological target: T1, human GPR43; conditions: library at 1-100 μM; confirmed by a dose response curve
Method: (§1) Additional related compounds were tested using the same cells.

[7] = test system: other GPCRs, such as motilin or histamine H1 receptor; conditions: Gqi only or cDNAs for other GPCRs; data not shown
[8] = test system: human polymorphonuclear (PMN) leukocytes; conditions: Naccache et al, Fonteriz et al, Nakao et al; cited from earlier work
[9] = biological target: T1, human GPR43; assay: Inhibition of forskolin-stimulated adenylate cyclase activity in CHO-K1 cells stably expressing human GPR43; assay type: cell-based; set-up: expressed in transfected cells
Method: as §1
SCFA, ranging from 1 carbon to 4 carbon, were tested on CHO-K1 cells stably expressing the human GPR43 for their ability to inhibit the activity of adenylate cyclase stimulated with forskolin.

[10] = biological target: T1, human GPR43; assay: Production of inositol phosphates in CHO-K1 cells stably expressing human GPR43; assay type: cell-based; set-up: expressed in transfected cells; conditions: PTX-pretreatment prior to stimulation; FIG. 10
[11] = CHO-K1 cells stably expressing human GPR43, FIG. 4

| Compound | activity on GTPγ[35S] binding [1] | activity on human GPR43 [2] | order of agonist potency [1] | further results |
| --- | --- | --- | --- | --- |
| CC(O)CC(=O)O (racemic) [DL-β-hydroxybutyrate] | Inactive | is not active |  |  |
| NCCCC(=O)O [GABA] | Inactive |  |  |  |
| N[C@@H](CCC(=O)O)C(=O)O [L-glutamate] | Inactive | abolished the signal |  |  |
| CC=O [acetaldehyde] | Inactive |  |  |  |
| CC(=O)O [acetate] |  |  | acetate=propionate>n-butyrate=isobutyrate=n-valerate=caproate>>formate>>pyruvate=acetoacetate | stimulation of GTPγ[35S] binding in membranes with non related receptors [3]: not able to stimulate any binding; effect of increasing concentration on intracellular calcium [4]: concentration-dependent increase of intracellular calcium; EC50 [4]: 537 µM; shape of chemotactic dose-response [5]: classical bell-shaped dose-response curve; result of ligand screening [6]: specific activity; activation of control cells (inositol phosphates) [7]: not activated; EC50 for cytoplasmic calcium mobilization in PMN [8]: millimolar; decrease of forskolin-stimulated adenylate cyclase activity [9]: 75%; rank order of potency to inhibit forskolin-stimulated adenylate cyclase [9]: C2 (acetate)≧C3 (propionate)>C4 (butyrate)>>C1 (formate); observed effect on adenylate cyclase after overnight preincubation with Pertussis Toxin (PTX) ([9]; FIG. 5): totally abolished; activation of GTPγ[35S] binding, sodium versus ammonium salt ([1]; assay buffer containing 120 mM sodium or potassium, FIG. 7): equipotent; potency on accumulation of GTPγ[35S] binding ([1]; compared with the cell-based cAMP assay, FIG. 6): comparable to that observed in the cell-based functional assay monitoring cAMP levels; PTX sensitivity of the accumulation of total inositol phosphates [10]: non PTX sensitive |
| CC(=O)CC(=O)O [acetoacetate] |  | decreased but consistent activity | acetate=propionate>n-butyrate=isobutyrate=n-valerate=caproate>>formate>>pyruvate=acetoacetate |  |
| CC(C)=O [acetone] | Inactive |  |  |  |
| CCCC(=O)O [butyrate] |  |  |  | decrease of forskolin-stimulated adenylate cyclase activity [9, 11]: 75% |
| CCCCCC(=O)[O-].CCCCCC(=O)[O-].[Ca+2] [caproate] |  |  | acetate=propionate>n-butyrate=isobutyrate=n-valerate=caproate>>formate>>pyruvate=acetoacetate |  |
| O=C(O)CC(O)(CC(=O)O)C(=O)O [citrate] | Inactive | abolished the signal |  |  |
| CCO [ethanol] | Inactive |  |  |  |
| O=CO [formate] |  |  | acetate=propionate>n-butyrate=isobutyrate=n-valerate=caproate>>formate>>pyruvate=acetoacetate | decrease of forskolin-stimulated adenylate cyclase activity [9]: 75%; rank order of potency to inhibit forskolin-stimulated adenylate cyclase [9]: C2 (acetate)≧C3 (propionate)>C4 (butyrate)>>C1 (formate); activation of the human receptor (maximal response compared to acetate and propionate) ([1]; data not shown): partly activate |
| NCC(=O)O [glycine] |  | decreased activity without abolishing it |  |  |
| CC(C)C(=O)O [isobutyrate] |  |  | acetate=propionate>n-butyrate=isobutyrate=n-valerate=caproate>>formate>>pyruvate=acetoacetate |  |
| O=C(O)CC(=O)O [malonate] | Inactive | abolished the signal |  |  |
| CCCCC(=O)O [n-valerate] |  |  | acetate=propionate>n-butyrate=isobutyrate=n-valerate=caproate>>formate>>pyruvate=acetoacetate |  |
| O=C(O)C(=O)O [oxalate] | Inactive | abolished the signal |  |  |
| CCC(=O)O [propionate] |  |  | acetate=propionate>n-butyrate=isobutyrate=n-valerate=caproate>>formate>>pyruvate=acetoacetate | stimulation of GTPγ[35S] binding in membranes with non related receptors ([3]; adenosine A1, adrenergic 2C, CRF 1, CCR3, LTB4, M4, neuropeptide FF 2S, opioid 3, 5-HT1A, sst5 receptors): not able to stimulate any binding; effect of increasing concentration on intracellular calcium [4]: concentration-dependent increase of intracellular calcium; EC50 ([4]; Leukocyte): 540 µM; shape of chemotactic dose-response [5]: classical bell-shaped dose-response curve; EC50 for cytoplasmic calcium mobilization in PMN [8]: millimolar; decrease of forskolin-stimulated adenylate cyclase activity [9, 11]: 75%; rank order of potency to inhibit forskolin-stimulated adenylate cyclase ([9]; SCFA from 1 carbon to 4 carbon, FIG. 4): C2 (acetate)≧C3 (propionate)>C4 (butyrate)>>C1 (formate); PTX sensitivity of the accumulation of total inositol phosphates [10]: non PTX sensitive |
| N[C@@H](CO)C(=O)O [serine] |  | abolished the activity |  |  |
| O=C(O)CCC(=O)O [succinate] | Inactive | abolished the signal |  |  |
| f-met-leu-phe [fMLP] |  |  |  | maximal chemotactic index relative to SCFA ([5]; on average, data not shown): at least 3 fold |
